48 compounds from patent publication US8450308B2 (Vitae Pharmaceuticals, Inc., priority 2008, dated 2013) can be followed below.

What is called IC50 is the concentration that gives 50% inhibition.

This assay can be described thus: BACE cell assay: soluble Amyloid Beta 1-40 (Aβ 1-40) in culture media of H4-APPsw cells. The assay is classed as cell-based. The conditions noted are these: in vitro cell activity, H4-APPsw cells, secreted Aβ 1-40, overnight treatment; read-out: IC50. The procedure: H4 neuroglioma cell line that stably expresses Amyloid Precursor Protein (APP) containing the KM-NL Swedish mutation (H4-APPsw) was generated. For the assay, cells are treated overnight in the presence of inhibitor and the culture media are subjected to ELISA analysis of soluble Amyloid Beta 1-40 (Aβ 1-40).
H4 neuroglioma cell line was cultured in DMEM with 10% FBS and 1% penicillin/streptomycin (Culture Medium) at 37° C., 5% CO2. […] 24 hrs after transfection, the cells were replaced into three new plates (150 mm) in fresh Culture Medium with 250 ug/ml Zeocin. […] The levels of APPsw expression were analyzed by immunoblotting and the production of Aβ 1-40 was detected by ELISA of culture supernatants. The selected clones are maintained in Culture Medium with 250 μg/ml Zeocin and routinely split in 3-4 days to maintain 20-80% confluence.
Split cells. Split H4-APPsw cells in Culture Medium and culture overnight such that cells will be ˜80% confluent next morning.
Create Compound Dilution Plate. After determining the desired final concentration of compound to be tested, create a 500× dilution plate. Add DMSO, but not inhibitor, to each well of Column 1. […] Add compounds of interest at 500× desired final concentration to wells A3-A10. Add DMSO, but not inhibitor, to each well of Columns 11 and 12. Dilute contents of Row A 1:3 in Row B. then continue through Rows C—H.
Create Media Plate. To create a 2× solution of compound in media, add 996 μL Culture Medium to each well of a 96-well 2 ml deep well plate (Media Plate) in biosafety hood. Add 4 μL 5 mM control compound to Media Plate wells A1-D1 for determination of full inhibition.
Add media to Cell Plate. With a multichannel pipettor, mix each well of Media Plate several times to insure homogeneity. Add 100 μL of mixture to Black polymer bottom P-D-L plates. Next, place Medium Plate and Cell Plate in the incubator.
Add cells to Cell Plate. Trypsinize and count H4-APPsw cells. Dilute cells 6×10^5 cells/ml in Culture Medium and remove Cell Plate from incubator. Vortex cells to homogeneity, then using a multichannel repeating pipettor, add 100 μL cell suspension to Cell Plate, adding cells from Row H to Row A. Place Cell Plate in incubator.
Change media in Cell Plate. After 5 h, check Cell Plate by microscope to insure cells are attached. In culture hood, remove media from Cell Plate using multichannel repeating pipettor. Add 100 μl Culture Medium to each well. Remove Media Plate from incubator and mix with pipettor as previous. Add 100 μl from each well of Media Plate to corresponding well in Cell Plate. Place Cell Plate in incubator overnight.
Perform ELISA to determine levels of secreted Aβ 1-40. After 16 h incubation, spin Cell Plate for 8 min at 1200 rpm. The primary reading of Aβ 1-40 levels is done using PerkinElmer AlphaLISA technology. Follow the manufacturer's protocol for performing AlphaLISA in a white ½ area Optiwell plate using Row 12 for peptide standard (1:2 dilutions, starting at 15 ng/ml). Data are acquired using PerkinElmer Fusion-Alpha FP-HT, Alpha protocol (Count Time 0.6 s, Count Time Ratio 30%:70%).
Export data from Fusion using Columnar Report format into a separate file for each plate. Upload data into Activity Base using RIA-DOSE-RESPONSE protocol (Version 1). Data from at least eight doses were fitted to a four parameter logistical model using XLfit software to determine potency.

Turning to `CN1C(=O)C2(C[C@H](C3CCCc4ccccc43)Oc3ccc(-c4cccc(C#N)c4)cc32)N=C1N` (stereo in doubt) [Compound 188, 3-(2′-amino-1′-methyl-5′-oxo-2-(1,2,3,4-tetrahydronaphthalen-1-yl)-1′,5′-dihydrospiro[chroman-4,4′-imidazole]-6-yl)benzonitrile], the concentration for half-maximal inhibition (IC50) was 100 to 500 nM. `Cc1cc(Br)cc(-c2ccc3c(c2)C2(CC4(CCCOC4)O3)N=C(N)N(C)C2=O)c1F` (stereo not drawn) [Compound 253]: the IC50 lay in the range of 500 to 1000 nM.

Regarding `CN1C(=O)C2(C[C@H](C3CCOC(C)(C)C3)Oc3ccc(-c4ccc(F)c(F)c4)cc32)N=C1N` (stereo partly drawn) [Compound 254], the half-inhibitory concentration (IC50) fell in the range of 100 to 500 nM.

As for `CN1C(=O)C2(C[C@H]([C@H]3CCOC(C)(C)C3)Oc3ccc(-c4cccc(C#N)c4)cc32)N=C1N` (stereo partly drawn) [Compound 230], the IC50 lay in the range of 1 to 100 nM. Next, `CN1O[C@@]2(C[C@@H](C3CCCc4ccccc43)Oc3ccc(-c4ccc(F)c(C#N)c4)cc32)N=C1N` (stereo partly drawn) [Compound 201]: 1000 to 5000 nM. Then `COc1cc(Cl)cc(-c2ccc3c(c2)[C@]2(C[C@]4(CCCOC4)O3)N=C(N)N(C)C2=O)c1` [Compound 214], with 1 to 100 nM. Then `CN1O[C@@]2(C[C@H]([C@@H]3CCOC(C)(C)C3)Oc3ccc(-c4cccc(C#N)c4)cc32)N=C1N` [Compound 237], with 500 to 1000 nM; and `CN1OC2(CC(C3CCCc4ccccc43)Oc3ccc(-c4cccc(Cl)c4)cc32)N=C1N` (stereo not drawn) [Compound 239], with 1000 to 5000 nM. As for `CN1C(=O)[C@@]2(C[C@]3(CCCOC3)Oc3ccc(-c4cc(C#N)cc(C#N)c4)cc32)N=C1N` [Compound 255], the IC50 lay in the range of 100 to 500 nM. `CN1C(=O)C2(CC(C3CCOC(C)(C)C3)Oc3ccc(-c4cc(C#N)ccc4F)cc32)N=C1N` (stereo not drawn) [Compound 218]: the 50% inhibitory concentration (IC50) lay within 1 to 100 nM. Next, `CN1O[C@@]2(C[C@H](C3CCCc4ccccc43)Oc3ccc(-c4cccc(C#N)c4)cc32)N=C1N` (stereo partly drawn) [Compound 247]: 500 to 1000 nM; `CN1OC2(CC(C3CCCc4ccccc43)Oc3ccc(-c4cc(Cl)cc(C#N)c4)cc32)N=C1N` (stereo not drawn) [Compound 208]: 1000 to 5000 nM; `CN1C(=O)[C@@]2(C[C@]3(CCCOC3)Oc3ccc(-c4cccc(C(F)(F)F)c4)cc32)N=C1N` [Compound 243]: 100 to 500 nM. Then `CN1OC2(CC(C3CCOC(C)(C)C3)Oc3ccc(-c4cc(F)cc(C#N)c4)cc32)N=C1N` (stereo not drawn) [Compound 260], with 1000 to 5000 nM; and `CN1O[C@]2(C[C@H](C3CCOC(C)(C)C3)Oc3ccc(-c4cccc(C#N)c4)cc32)N=C1N` (stereo partly drawn) [Compound 258], with 100 to 500 nM. With `C[C@@H]1CC[C@@]2(CO1)CC1(N=C(N)N(C)O1)c1cc(-c3cccc(C#N)c3)ccc1O2` (stereo partly drawn) [Compound 275, 3-(3″-amino-2″-methyl-4″,5″-dihydro-2″H-spiro(spiro(chroman-2,3′-[(2R,6R/2S,6S)-2,4,5,6-tetrahydro-6-methyl-pyran])-(4S/4S)-4,5″-[1,2,4]oxadiazole)-6-yl)benzonitrile], the IC50 is 500 to 1000 nM. Next, `CN1C(=O)C2(C[C@H](C3CCOC(C)(C)C3)Oc3ccc(-c4cccc(F)c4)cc32)N=C1N` (stereo partly drawn) [Compound 241]: 100 to 500 nM; `CC1CC[C@@]2(CO1)C[C@]1(N=C(N)N(C)O1)c1cc(-c3cccc(Cl)c3)ccc1O2` (stereo partly drawn) [Compound 236]: 500 to 1000 nM. Next, `CN1OC2(CC3(CCCc4ccccc4C3)Oc3ccc(-c4cccc(Cl)c4)cc32)N=C1N` (stereo not drawn) [Compound 189]: 500 to 1000 nM; `CN1OC2(CC3(CCCc4ccccc4C3)Oc3ccc(-c4cccnc4)cc32)N=C1N` (stereo not drawn) [Compound 181]: 1 to 100 nM. Consider `CN1O[C@@]2(C[C@H](C3CCCc4ccccc43)Oc3ccc(-c4ccc(F)c(Cl)c4)cc32)N=C1N` (stereo partly drawn) [Compound 252], for which the half-inhibitory concentration (IC50) fell in the range of 1000 to 5000 nM. As for `CN1O[C@@]2(C[C@@H](C3CCCc4ccccc43)Oc3ccc(-c4ccc(F)c(Cl)c4)cc32)N=C1N` (stereo partly drawn) [Compound 235], the IC50 was 1000 to 5000 nM. `CN1C(=O)C2(CC(C3CCOC(C)(C)C3)Oc3ccc(-c4cccc(C(F)(F)F)c4)cc32)N=C1N` (stereo not drawn) [Compound 200]: the IC50 fell in the range of 1 to 100 nM. As to `CN1C(=O)C2(CC(C3CCOC(C)(C)C3)Oc3ccc(-c4cc(Cl)cc(C#N)c4)cc32)N=C1N` (stereo not drawn) [Compound 183], the 50% inhibitory concentration (IC50) lay in the range of 1 to 100 nM. Next, `CN1OC2(CC3(CCCc4ccccc4C3)Oc3ccc(-c4cc(F)cc(Cl)c4)cc32)N=C1N` (stereo not drawn) [Compound 227]: 1000 to 5000 nM; `CN1C(=O)[C@@]2(C[C@]3(CCCOC3)Oc3ccc(-c4cc(F)cc(Cl)c4)cc32)N=C1N` [Compound 215]: 100 to 500 nM. For the compound `CN1OC2(CC(C3CCCc4ccccc43)Oc3ccc(-c4cc(F)cc(C(F)(F)F)c4)cc32)N=C1N` (stereo not drawn) [Compound 269], the half-maximal inhibitory concentration (IC50) fell in the range of 5000 to 10000 nM. Then `COc1cc(Cl)cc(-c2ccc3c(c2)[C@]2(C[C@@]4(CCCOC4)O3)N=C(N)N(C)C2=O)c1` [Compound 256], with 100 to 500 nM; and `CN1C(=O)C2(CC(C3CCOC(C)(C)C3)Oc3ccc(-c4cc(Cl)cc(Cl)c4)cc32)N=C1N` (stereo not drawn) [Compound 196], with 1 to 100 nM. Next, `CN1OC2(CC(C3CCOC(C)(C)C3)Oc3ccc(-c4cc(C#N)cc(C#N)c4)cc32)N=C1N` (stereo not drawn) [Compound 248]: 100 to 500 nM; `CN1O[C@]2(C[C@@]3(CCCc4ccccc4C3)Oc3ccc(-c4cccc(C#N)c4)cc32)N=C1N` [Compound 228]: 500 to 1000 nM; `COc1cc(Cl)cc(-c2ccc3c(c2)C2(CC4(CCC(C)OC4)O3)N=C(N)N(C)O2)c1` (stereo not drawn) [Compound 274]: 1000 to 5000 nM. `CN1OC2(CC(C3CCOC(C)(C)C3)Oc3ccc(-c4cc(C#N)ccc4F)cc32)N=C1N` (stereo not drawn) [Compound 261]: the IC50 lay in the range of 500 to 1000 nM. Then `CN1C(=O)[C@@]2(C[C@]3(CCCOC3)Oc3ccc(-c4cc(Cl)cc(Cl)c4)cc32)N=C1N` [Compound 202], with 1 to 100 nM; and `CN1C(=O)C2(CC(C34CCC(CC3)OC4)Oc3ccc(-c4cccc(C#N)c4)cc32)N=C1N` (stereo not drawn) [Compound 206], with 100 to 500 nM. For `CN1C(=O)[C@@]2(C[C@]3(CCCOC3)Oc3ccc(-c4cc(F)cc(C#N)c4)cc32)N=C1N` [Compound 250], the IC50 lay within 100 to 500 nM. Next, `CN1C(=O)C2(CC(C3CCOC(C)(C)C3)Oc3ccc(-c4cc(F)cc(F)c4F)cc32)N=C1N` (stereo not drawn) [Compound 229]: 100 to 500 nM. Then `CN1O[C@@]2(C[C@H](C3CCCc4ccccc43)Oc3ccc(-c4ccc(F)c(C#N)c4)cc32)N=C1N` (stereo partly drawn) [Compound 221], with 1000 to 5000 nM. Then `CN1C(=O)C2(CC(C3CCOC(C)(C)C3)Oc3ccc(-c4cc(F)cc(C#N)c4)cc32)N=C1N` (stereo not drawn) [Compound 194], with 1 to 100 nM; and `CC1CC[C@@]2(CO1)C[C@]1(N=C(N)N(C)O1)c1cc(-c3ccc(F)c(Cl)c3)ccc1O2` (stereo partly drawn) [Compound 249], with 1000 to 5000 nM.

Regarding `CN1O[C@]2(C[C@]3(CCCc4ccccc4C3)Oc3ccc(-c4cccc(C#N)c4)cc32)N=C1N` [Compound 220], the IC50 was in the range of 100 to 500 nM.

For the compound `CN1OC2(CC3(CCCc4ccccc4C3)Oc3ccc(-c4ccc(F)c(Cl)c4)cc32)N=C1N` (stereo not drawn) [Compound 192], the IC50 lay in the range of 500 to 1000 nM. Then `CN1C(=O)[C@@]2(C[C@]3(CCCOC3)Oc3ccc(-c4cccc(OC(F)(F)F)c4)cc32)N=C1N` [Compound 262], with 100 to 500 nM; and `CN1OC2(CC3(CCCc4ccccc4C3)Oc3ccc(-c4cc(C#N)cc(C#N)c4)cc32)N=C1N` (stereo not drawn) [Compound 178], with 1 to 100 nM. With `CN1C(=O)[C@@]2(C[C@@H](C3CCCc4ccccc43)Oc3ccc(-c4cccc(C#N)c4)cc32)N=C1N` (stereo partly drawn) [Compound 245], the half-maximal inhibitory concentration (IC50) is 500 to 1000 nM. Then `CN1C(=O)C2(CC(C3CCOC(C)(C)C3)Oc3ccc(-c4cc(C#N)cc(C(F)(F)F)c4)cc32)N=C1N` (stereo not drawn) [Compound 213], with 1 to 100 nM. Consider `CN1O[C@]2(C[C@@]3(CCCc4ccccc43)Oc3ccc(-c4cccc(C#N)c4)cc32)N=C1N` [Compound 266], for which the concentration for half-maximal inhibition (IC50) was in the range of 1000 to 5000 nM. Next, `CN1OC2(CC3(CCCc4ccccc4C3)Oc3ccc(C#CC4CC4)cc32)N=C1N` (stereo not drawn) [Compound 238]: 1000 to 5000 nM.
